Laboratory results published in ChEMBL document CHEMBL1201862, “PubChem BioAssay data set” (2004).
Calls of active or inactive are those of the source.

Assays:
[1] = molecular target: T1, Ubiquitin-conjugating enzyme E2 N (Homo sapiens, UniProt P61088); assay type: functional;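 also: Dose-response confirmation in a TR-FRET assay detecting UBC13-driven polyubiquitin chain formation, inhibition measured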
T1 sequence (P61088 whole entry): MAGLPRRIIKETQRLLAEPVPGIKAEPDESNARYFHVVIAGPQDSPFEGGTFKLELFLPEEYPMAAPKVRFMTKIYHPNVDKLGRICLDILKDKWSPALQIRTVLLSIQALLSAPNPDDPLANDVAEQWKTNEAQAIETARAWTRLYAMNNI

cells [2] = assay type: functional, cell-based
cells [3] = assay type: functional, cell-based; remark: listed apart in the source
Cytochrome P450 2C9 = Cytochrome P450 2C9 (Homo sapiens, UniProt P11712)
Cytochrome P450 1A2 = molecular target: T2, Cytochrome P450 1A2 (Homo sapiens, UniProt P05177);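 also: PubChem cytochrome P450 panel assay, CYP1A2 panel member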
T2 sequence (P05177 whole entry): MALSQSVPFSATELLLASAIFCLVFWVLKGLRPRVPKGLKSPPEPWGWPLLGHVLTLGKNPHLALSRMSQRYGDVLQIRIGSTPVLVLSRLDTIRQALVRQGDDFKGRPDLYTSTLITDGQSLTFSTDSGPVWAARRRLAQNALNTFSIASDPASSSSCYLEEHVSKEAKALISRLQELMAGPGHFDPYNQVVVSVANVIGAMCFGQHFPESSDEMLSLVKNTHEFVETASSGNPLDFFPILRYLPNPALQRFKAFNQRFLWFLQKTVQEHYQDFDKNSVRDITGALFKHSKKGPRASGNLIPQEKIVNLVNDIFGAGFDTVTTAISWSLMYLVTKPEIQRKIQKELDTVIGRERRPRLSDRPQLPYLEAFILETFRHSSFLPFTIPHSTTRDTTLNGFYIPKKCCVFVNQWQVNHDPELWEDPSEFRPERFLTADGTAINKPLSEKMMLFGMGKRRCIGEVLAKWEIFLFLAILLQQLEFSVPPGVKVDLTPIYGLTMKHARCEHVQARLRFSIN

[4] = molecular target: Voltage-dependent T-type calcium channel subunit alpha-1H (Homo sapiens, UniProt O95180); assay type: functional;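 also: channel activity triggered by adding a high calcium stimulation buffer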
[5] = molecular target: T3, Replicative DNA helicase DnaB (Mycobacterium tuberculosis, UniProt P9WMR3); experiment: DnaB intein splicing inhibitors, dose response, biochemical, cell-free fluorescence (AID 449749); assay type: functional
T3 sequence (P9WMR3 whole entry): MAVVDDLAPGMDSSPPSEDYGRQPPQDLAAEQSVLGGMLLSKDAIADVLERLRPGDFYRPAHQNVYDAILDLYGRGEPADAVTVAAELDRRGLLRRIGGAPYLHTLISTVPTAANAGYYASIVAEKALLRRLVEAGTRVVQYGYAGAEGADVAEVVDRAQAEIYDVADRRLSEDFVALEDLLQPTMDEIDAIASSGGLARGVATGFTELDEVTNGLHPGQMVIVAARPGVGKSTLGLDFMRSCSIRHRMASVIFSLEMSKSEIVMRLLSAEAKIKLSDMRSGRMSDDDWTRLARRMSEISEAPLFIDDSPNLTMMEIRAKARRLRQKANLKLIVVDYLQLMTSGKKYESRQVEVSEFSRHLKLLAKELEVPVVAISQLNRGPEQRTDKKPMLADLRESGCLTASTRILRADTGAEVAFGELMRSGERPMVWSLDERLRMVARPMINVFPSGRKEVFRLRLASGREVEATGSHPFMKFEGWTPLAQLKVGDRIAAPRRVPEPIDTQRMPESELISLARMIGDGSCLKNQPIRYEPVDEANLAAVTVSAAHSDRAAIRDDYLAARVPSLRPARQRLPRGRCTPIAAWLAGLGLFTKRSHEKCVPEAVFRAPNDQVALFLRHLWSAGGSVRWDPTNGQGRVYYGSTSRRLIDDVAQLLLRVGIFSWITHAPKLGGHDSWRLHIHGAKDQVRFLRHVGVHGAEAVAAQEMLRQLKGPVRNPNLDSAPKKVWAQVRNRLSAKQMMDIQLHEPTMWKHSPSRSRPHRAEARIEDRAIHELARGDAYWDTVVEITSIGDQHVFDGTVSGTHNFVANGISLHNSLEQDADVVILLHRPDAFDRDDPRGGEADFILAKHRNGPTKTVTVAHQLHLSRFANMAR

Protein RecA = molecular target: T4, Protein RecA (Mycobacterium tuberculosis, UniProt P9WHJ3); experiment: Fluorescence Cell-Free Homogeneous Dose Retest to Identify Inhibitors of RecA-Intein Splicing Activity. [Related pubchem assays (depositor defined):AID2097, AID2223, AID489010, AID492950]; assay type: functional
T4 sequence (P9WHJ3 whole entry): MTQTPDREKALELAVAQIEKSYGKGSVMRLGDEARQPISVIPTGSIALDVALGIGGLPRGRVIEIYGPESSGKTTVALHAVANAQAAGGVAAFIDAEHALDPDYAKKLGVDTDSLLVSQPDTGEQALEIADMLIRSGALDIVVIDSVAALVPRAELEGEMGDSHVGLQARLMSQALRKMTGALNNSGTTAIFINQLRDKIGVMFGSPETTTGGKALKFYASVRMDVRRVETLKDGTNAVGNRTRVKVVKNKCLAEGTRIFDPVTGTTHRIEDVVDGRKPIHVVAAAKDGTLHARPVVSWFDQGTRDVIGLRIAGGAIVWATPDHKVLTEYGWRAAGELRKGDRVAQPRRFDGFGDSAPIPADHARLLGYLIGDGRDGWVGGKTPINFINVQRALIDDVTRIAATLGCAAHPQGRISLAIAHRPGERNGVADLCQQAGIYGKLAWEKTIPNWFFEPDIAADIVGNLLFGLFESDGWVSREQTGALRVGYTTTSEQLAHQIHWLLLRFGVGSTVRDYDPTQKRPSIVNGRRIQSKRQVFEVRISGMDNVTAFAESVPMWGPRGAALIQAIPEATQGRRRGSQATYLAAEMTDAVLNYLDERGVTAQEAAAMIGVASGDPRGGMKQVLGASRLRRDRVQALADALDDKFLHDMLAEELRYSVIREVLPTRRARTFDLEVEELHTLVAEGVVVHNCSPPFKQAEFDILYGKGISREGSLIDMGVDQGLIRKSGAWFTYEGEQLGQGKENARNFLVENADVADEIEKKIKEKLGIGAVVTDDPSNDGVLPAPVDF

[6] = molecular target: T5, High affinity choline transporter 1 (Homo sapiens, UniProt Q9GZV3); experiment: human choline transporter blockers, potency – cell-based, 5-point CRC, membrane potential dye, dose response (AID 504840); assay type: functional
T5 sequence (Q9GZV3 whole entry): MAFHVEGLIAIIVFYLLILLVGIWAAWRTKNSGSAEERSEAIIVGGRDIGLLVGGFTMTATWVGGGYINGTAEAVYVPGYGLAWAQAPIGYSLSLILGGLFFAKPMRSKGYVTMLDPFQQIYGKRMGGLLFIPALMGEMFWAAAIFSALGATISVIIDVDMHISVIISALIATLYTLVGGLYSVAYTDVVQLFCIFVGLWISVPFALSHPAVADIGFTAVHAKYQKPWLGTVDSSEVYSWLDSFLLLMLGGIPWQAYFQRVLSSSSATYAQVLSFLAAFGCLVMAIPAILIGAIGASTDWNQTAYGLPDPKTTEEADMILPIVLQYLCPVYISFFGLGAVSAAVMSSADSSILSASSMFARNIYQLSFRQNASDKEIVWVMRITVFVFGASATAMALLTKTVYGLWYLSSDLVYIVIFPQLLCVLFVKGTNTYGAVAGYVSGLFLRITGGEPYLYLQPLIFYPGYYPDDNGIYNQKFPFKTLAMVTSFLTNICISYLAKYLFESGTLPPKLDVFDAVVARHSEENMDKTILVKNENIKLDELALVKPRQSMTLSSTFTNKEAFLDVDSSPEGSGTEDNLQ

[7] = molecular target: T6, Polyadenylate-binding protein 1 (Homo sapiens, UniProt P11940); experiment: MLLE domain peptide-binding blockers, IC50 – biochemical, fluorescence polarization, FITC-PAM2 peptide, dose response (AID 602259); assay type: functional; settings: read-out: IC50_Mean
[8] = molecular target: T6, Polyadenylate-binding protein 1; experiment: MLLE binding blockers, Cy5 peptide tracer – biochemical, fluorescence polarization, Cy5-PAM2 peptide, secondary, miRNA deadenylation inhibitor project, dose response (AID 602260); assay type: functional; settings: read-out: IC50_Mean
[9] = Trypanosoma cruzi growth suppression in host cells – NIH3T3 host cells, beta-gal luminescence, confirmation (AID 2044); assay type: functional, cell-based;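 also: intracellular parasites grown in NIH/3T3 mouse fibroblasts as host cells; luminescent beta-galactosidase reporter signal from transgenic T. cruzi replicating inside host cells; inhibitors lower the luminescence signal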
[10] = NIH3T3 cell viability loss – ATP luminescence, mouse fibroblasts, counter-screen, dose response (AID 2010); assay type: functional, cell-based;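 also: cells exposed to compound for about 90 hours before reading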
[11] = HIV-1 AD8 envelope cell-cell fusion blockers – cherry-pick, dose response (AID 652062); assay type: functional, cell-based;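 also: luciferase signal from cell-cell fusion driven by HIV-1 clade B AD8 Env; potency is for inhibitors of fusion seen as a drop in luminescence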
Cytochrome P450 3A4 = Cytochrome P450 3A4 (Homo sapiens, UniProt P08684);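 also: CYP3A4 tested as one member of a cytochrome P450 panel screen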
[12] = microbe, parasite or virus in culture; assay type: functional; settings: Mycobacterium tuberculosis
[13] = Luminescence Cell-Based Dose Retest to Confirm Inhibitors of Cancer Stem Cells. [Related pubchem assays (depositor defined):AID2717, AID2721]; assay type: functional; settings: Homo sapiens
[14] = viability of PTEN-deleted HCT116 cells – cell-based, HCT116 PTEN knockout, dose response (AID 1047); assay type: functional;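 also: HCT116 colon tumor cells with PTEN knocked out; cells exposed to compound for 60 hours before readout; potency for loss of cell viability measured by luminescence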
[15] = viability of HCT116 lacking mutant beta-catenin – cell-based, human colon tumor, dose response (AID 1045); assay type: functional;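 also: HCT116 colon tumor cells with beta catenin knocked out; cells exposed to compound for 60 hours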

T6 sequence (P11940 whole entry, the tested form may be a part): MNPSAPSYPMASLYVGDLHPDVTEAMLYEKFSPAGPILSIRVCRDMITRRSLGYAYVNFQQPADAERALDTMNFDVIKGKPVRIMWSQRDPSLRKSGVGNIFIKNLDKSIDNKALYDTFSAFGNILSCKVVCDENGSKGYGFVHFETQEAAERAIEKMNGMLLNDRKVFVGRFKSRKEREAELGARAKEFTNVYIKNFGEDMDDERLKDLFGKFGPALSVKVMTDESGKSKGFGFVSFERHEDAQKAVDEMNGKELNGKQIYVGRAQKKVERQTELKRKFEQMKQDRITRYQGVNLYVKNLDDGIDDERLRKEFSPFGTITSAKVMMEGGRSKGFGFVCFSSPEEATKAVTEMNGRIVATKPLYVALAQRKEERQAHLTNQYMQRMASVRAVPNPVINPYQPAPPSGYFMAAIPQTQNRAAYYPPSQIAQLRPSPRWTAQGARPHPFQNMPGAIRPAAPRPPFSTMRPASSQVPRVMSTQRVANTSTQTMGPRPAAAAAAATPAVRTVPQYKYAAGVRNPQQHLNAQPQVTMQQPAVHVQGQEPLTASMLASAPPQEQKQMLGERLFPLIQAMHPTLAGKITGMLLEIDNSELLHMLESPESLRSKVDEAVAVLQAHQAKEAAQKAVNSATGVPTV
Chain of Voltage-dependent T-type calcium channel subunit alpha-1H (O95180 whole entry): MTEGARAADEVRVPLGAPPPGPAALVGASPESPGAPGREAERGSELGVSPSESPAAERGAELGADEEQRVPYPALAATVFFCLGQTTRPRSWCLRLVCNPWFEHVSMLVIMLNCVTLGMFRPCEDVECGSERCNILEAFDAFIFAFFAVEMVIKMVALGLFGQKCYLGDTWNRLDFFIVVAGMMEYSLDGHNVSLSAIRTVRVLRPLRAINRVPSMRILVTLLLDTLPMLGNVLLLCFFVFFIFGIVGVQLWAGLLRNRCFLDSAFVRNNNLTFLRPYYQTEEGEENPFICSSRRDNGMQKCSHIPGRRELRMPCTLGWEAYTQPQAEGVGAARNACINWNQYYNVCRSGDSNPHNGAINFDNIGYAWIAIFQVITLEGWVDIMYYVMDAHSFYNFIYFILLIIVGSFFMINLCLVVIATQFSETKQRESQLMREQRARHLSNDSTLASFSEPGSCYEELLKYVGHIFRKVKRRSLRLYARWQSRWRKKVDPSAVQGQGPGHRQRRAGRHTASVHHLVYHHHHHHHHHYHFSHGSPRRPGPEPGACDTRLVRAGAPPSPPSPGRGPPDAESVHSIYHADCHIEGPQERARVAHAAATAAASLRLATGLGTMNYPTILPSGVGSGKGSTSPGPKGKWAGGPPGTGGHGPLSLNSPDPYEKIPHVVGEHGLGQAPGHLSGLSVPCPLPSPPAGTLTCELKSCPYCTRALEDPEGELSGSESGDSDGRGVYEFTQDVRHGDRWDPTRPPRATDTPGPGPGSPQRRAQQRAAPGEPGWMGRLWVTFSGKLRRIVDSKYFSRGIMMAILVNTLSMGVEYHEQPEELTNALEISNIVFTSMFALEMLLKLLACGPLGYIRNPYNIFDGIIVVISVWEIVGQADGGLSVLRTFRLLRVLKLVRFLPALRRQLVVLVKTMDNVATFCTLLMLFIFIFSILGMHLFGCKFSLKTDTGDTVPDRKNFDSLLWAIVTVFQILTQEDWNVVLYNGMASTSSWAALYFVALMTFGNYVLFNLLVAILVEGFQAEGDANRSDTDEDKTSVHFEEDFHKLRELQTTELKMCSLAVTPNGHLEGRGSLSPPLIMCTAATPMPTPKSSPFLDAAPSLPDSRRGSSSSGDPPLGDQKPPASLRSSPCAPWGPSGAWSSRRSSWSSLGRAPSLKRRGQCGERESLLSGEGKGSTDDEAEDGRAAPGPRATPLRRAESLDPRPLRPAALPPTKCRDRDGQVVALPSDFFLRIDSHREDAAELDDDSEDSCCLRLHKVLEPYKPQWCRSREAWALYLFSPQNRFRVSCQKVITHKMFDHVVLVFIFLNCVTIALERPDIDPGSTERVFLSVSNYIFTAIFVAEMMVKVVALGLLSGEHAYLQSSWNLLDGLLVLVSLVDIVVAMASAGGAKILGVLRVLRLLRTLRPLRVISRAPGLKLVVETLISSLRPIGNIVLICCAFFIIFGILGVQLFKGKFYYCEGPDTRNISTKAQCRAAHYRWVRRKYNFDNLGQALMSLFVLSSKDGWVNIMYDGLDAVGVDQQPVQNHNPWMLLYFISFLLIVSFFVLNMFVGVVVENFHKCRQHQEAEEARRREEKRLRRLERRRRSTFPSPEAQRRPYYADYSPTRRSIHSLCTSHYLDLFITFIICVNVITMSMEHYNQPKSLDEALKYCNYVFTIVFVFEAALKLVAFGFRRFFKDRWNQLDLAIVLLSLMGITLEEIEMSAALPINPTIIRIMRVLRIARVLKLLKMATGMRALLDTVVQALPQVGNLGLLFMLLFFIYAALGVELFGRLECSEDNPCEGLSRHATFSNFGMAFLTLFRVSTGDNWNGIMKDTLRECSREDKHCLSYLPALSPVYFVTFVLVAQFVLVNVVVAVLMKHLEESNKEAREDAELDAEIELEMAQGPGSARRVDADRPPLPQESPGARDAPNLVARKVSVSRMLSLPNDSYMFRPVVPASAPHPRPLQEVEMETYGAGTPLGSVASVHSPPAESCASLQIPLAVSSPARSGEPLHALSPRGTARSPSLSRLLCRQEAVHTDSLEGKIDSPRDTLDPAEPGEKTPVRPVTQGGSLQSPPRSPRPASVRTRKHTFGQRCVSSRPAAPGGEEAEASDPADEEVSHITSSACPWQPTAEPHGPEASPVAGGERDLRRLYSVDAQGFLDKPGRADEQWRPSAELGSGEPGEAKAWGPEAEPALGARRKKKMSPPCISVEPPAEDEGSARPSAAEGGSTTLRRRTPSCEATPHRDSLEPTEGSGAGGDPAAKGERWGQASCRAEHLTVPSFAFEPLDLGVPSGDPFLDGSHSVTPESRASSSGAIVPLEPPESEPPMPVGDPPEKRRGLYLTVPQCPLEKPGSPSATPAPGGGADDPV
Chain of Cytochrome P450 2C9 (P11712 whole entry): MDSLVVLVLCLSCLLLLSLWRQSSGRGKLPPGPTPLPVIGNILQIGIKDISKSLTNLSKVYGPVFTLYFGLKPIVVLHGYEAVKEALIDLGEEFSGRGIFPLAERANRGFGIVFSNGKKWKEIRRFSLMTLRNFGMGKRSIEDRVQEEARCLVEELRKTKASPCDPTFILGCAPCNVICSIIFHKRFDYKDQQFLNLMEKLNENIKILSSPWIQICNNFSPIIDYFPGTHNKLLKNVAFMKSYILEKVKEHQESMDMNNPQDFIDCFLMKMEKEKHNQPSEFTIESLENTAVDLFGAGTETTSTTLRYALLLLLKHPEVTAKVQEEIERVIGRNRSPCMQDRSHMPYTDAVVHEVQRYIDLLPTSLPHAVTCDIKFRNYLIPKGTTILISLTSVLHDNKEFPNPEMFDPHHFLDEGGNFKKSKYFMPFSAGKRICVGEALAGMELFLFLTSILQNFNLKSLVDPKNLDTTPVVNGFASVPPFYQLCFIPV
Chain of Cytochrome P450 3A4 (P08684 whole entry): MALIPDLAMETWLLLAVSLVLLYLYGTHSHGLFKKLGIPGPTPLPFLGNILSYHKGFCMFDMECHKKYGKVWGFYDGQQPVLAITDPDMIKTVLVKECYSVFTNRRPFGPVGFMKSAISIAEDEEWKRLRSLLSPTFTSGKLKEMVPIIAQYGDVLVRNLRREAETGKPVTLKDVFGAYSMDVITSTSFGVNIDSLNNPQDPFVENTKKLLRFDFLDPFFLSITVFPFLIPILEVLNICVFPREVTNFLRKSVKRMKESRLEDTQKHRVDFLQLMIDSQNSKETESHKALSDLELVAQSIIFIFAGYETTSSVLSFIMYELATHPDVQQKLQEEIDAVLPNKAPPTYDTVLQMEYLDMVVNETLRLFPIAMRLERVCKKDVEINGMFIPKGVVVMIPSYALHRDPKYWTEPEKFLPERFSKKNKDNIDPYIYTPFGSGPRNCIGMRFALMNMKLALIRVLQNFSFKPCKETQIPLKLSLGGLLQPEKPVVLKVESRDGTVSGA

Structure (SMILES): CC(C)[C@@H]1CN=C(N)N1C[C@@H]1CCCN1C[C@H](C)N1C[C@@H](Cc2ccccc2)N(CCc2ccc(Cl)c(Cl)c2)C1=N
- IC50 [1]: > 20 µM (inactive)

Structure (SMILES): Cc1snc(SCC(=O)NN=C(N)COc2cccc(C(F)(F)F)c2)c1C#N
- EC50 (cells [2]): > 350 µM (not active)
- EC50 (cells [3]): > 350 µM (not active)

Structure (SMILES): CN1CCN(c2ncc3nc(-c4cc(F)cc(F)c4)c(=O)n(C)c3n2)CC1
- AC50 (Cytochrome P450 2C9): inconclusive
- AC50 (Cytochrome P450 1A2): 5.01 µM (inconclusive)

Structure (SMILES): COc1ccccc1N1CCN(CC(=O)c2c(C)[nH]c3cc(C)ccc23)CC1
- EC50 [4]: 5.63 µM (active)
- AC50 [5]: 5.47 µM (active)
- EC50 (Protein RecA): 94.2 µM (active)

Structure (SMILES): COC(=O)c1c(NC(=O)c2nc3ccccc3s2)sc2c1CCN(C(C)=O)C2
- IC50 [1]: > 20 µM (inactive)

Structure (SMILES): O=C(Nc1cccc(S(=O)(=O)NC2=NCCC2)c1)c1cc(Cl)ccc1[N+](=O)[O-]
- IC50 [6]: 11.8 µM (active)

Structure (SMILES): CCCCc1cc(-c2nnc(S)o2)c2ccccc2n1
- IC50 [6]: 13.2 µM (active)

Structure (SMILES): CCc1cnccc1CCC(=O)Nc1ccccc1C
- EC50 (cells [2]): 52 µM (active)
- EC50 (cells [3]): > 350 µM (not active)

Structure (SMILES): CC1CCCCN1CCNC(=O)c1ccc2c(=O)n(Cc3ccc(Cl)cc3)c(=S)[nH]c2c1 (configuration not stated)
- IC50 [1]: > 20 µM (inactive)

Structure (SMILES): COc1ccc(Sc2nnc(Cc3ccccc3)c3ccccc23)cc1
- IC50 [7]: > 66 µM (inactive)
- IC50 [8]: > 66 µM (inactive)

Structure (SMILES): Cc1ccc(C(c2nnnn2C(C)(C)C)N(Cc2ccco2)Cc2cccs2)cc1 (configuration not stated)
- EC50 [4]: 6.33 µM (active)
- EC50 [9]: 2.26 µM (active)
- EC50 [10]: > 30 µM (not active)

Structure (SMILES): CCc1cc2c(NCc3ccco3)ncnc2s1
- AC50 [11]: 32.3 µM (active)
- AC50 (Cytochrome P450 3A4): 25.1 µM (inconclusive)
- IC50 [6]: 10 µM (active)

Structure (SMILES): COc1cc(C(=O)N2CCN(C(=O)Cc3ccccc3)CC2)cc(OC)c1OC
- EC50 (cells [2]): > 350 µM (not active)
- EC50 (cells [3]): > 350 µM (not active)

Structure (SMILES): CCCCC(O)(CCCC)C(=O)NN(C(=O)CCl)c1ccccc1
- CC50 [12]: 12.1 µM (active)
- AC50 [5]: 15 µM (active)
- EC50 (Protein RecA): 2.45 µM (active)

Structure (SMILES): COc1ccc(C(CNC(=O)c2cc3c(s2)CCC(C)C3)N2CCCC2)cc1 (configuration not stated)
- IC50 [1]: > 20 µM (inactive)

Structure (SMILES): CN1CCN(C(=S)NC(=O)c2ccc(S(=O)(=O)N3CCOCC3)cc2)CC1
- IC50 [7]: > 66 µM (inactive)
- IC50 [8]: > 66 µM (inactive)

Structure (SMILES): COc1cc(CNCCc2c[nH]c3ccccc23)ccc1OCc1ccccc1F
- AC50 [13]: 4.72 µM (active)
- EC50 [14]: 15.3 µM (active)
- EC50 [15]: 13.6 µM (active)
- EC50 [9]: 0.196 µM (active)
- EC50 [10]: > 60 µM (inconclusive)
- IC50 [1]: > 20 µM (inactive)

Structure (SMILES): CC1CCN(S(=O)(=O)c2ccc3c(c2)c(=O)c(C(=O)NC2CCCC2)cn3C)CC1
- IC50 [6]: 12 µM (active)

Structure (SMILES): COc1ccc(N2C(=O)[C@@H]3C(c4cccnc4)=NO[C@@H]3C2=O)cc1
- EC50 (cells [2]): > 350 µM (not active)
- EC50 (cells [3]): > 350 µM (not active)

Structure (SMILES): CN1C(=O)SC(Nc2ccccc2C(=O)O)C1=O (configuration not stated)
- IC50 [7]: > 66 µM (inactive)
- IC50 [8]: > 66 µM (inactive)

Structure (SMILES): CCN(CC)c1ccc(/C=C2/C(=O)NC(=O)N(CC3CCCO3)C2=O)cc1 (configuration not stated)
- AC50 (Cytochrome P450 2C9): inconclusive

Structure (SMILES): Cc1ccc(-c2nnc(CSc3nnc(COc4ccccc4)n3-c3ccccc3)o2)cc1
- EC50 [4]: 3.32 µM (active)

Structure (SMILES): Cc1ccc(S(=O)(=O)N[C@H]2COC(=O)C/C=C\[C@@H](C)COC(=O)C/C=C\[C@@H]2C)cc1
- AC50 (Cytochrome P450 2C9): inconclusive

Structure (SMILES): Nc1ccc(S(=O)(=O)Nc2nccs2)cc1 [SULFATHIAZOLE]
- AC50 (Cytochrome P450 2C9): inconclusive

Structure (SMILES): CCC(c1nnnn1C(C)(C)C)N1CCN(c2cc(Cl)ccc2C)CC1 (configuration not stated)
- EC50 [4]: 5.94 µM (active)

Structure (SMILES): COc1ccccc1N1CCN(C(c2ccccc2Cl)c2nnnn2C(C)(C)C)CC1 (configuration not stated)
- EC50 [4]: 11.7 µM (active)
